From patent US20250101028A1, “HETEROCYCLIC COMPOUNDS, COMPOSITIONS THEREOF, AND METHODS OF TREATMENT THEREWITH” (BeiGene, Ltd., priority 2022, published 2025)

target: T1, GST-tagged GDP-loaded KRAS G12V (amino acids 1-169) (Homo sapiens, UniProt P01116, G12V); assay: KRAS G12V probe displacement assay (TR-FRET); type: binding; settings: displacement of biotinylated probe 2 from GDP-loaded KRAS G12V
T1 construct: GST-tagged GDP-loaded KRAS G12V (amino acids 1-169); made in house; host or cells: E. coli
T1 sequence (P01116 1-169 isoform P01116-2 G12V): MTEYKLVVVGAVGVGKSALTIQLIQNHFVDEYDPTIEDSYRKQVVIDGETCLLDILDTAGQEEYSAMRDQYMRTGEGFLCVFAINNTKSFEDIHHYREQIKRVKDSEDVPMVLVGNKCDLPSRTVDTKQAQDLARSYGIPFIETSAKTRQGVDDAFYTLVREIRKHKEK
How it was run: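 GST-tagged GDP-loaded KRAS 1-169 (WT 3 nM; G12V 2 nM final) preincubated 1 h at 24 °C with serially diluted compound in HEPES pH 7.5 buffer, then biotinylated probe added (probe 1 60 nM for WT; probe 2 2.5 nM for G12V), 1 h. Anti-GST-Tb/streptavidin-XL665 TR-FRET 665/620 ratio; IC50 by four-parameter fit.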

First: Cc1cc(N)nc(-c2c(Cl)cc3c(N4CC[C@H](O)C4)nc(OC[C@@]45CCCN4C[C@H](F)C5)nc3c2F)c1C(F)(F)F [Example 102, (3S)-1-(7-(6-amino-4-methyl-3-(trifluoromethyl)pyridin-2-yl)-6-chloro-8-fluoro-2-(((2R,7aS)-2-fluorotetrahydro-1H-pyrrolizin-7a(5H)-yl)methoxy)quinazolin-4-yl)pyrrolidin-3-ol]
Second: Cc1cc(N)nc(-c2c(Cl)cc3c(N4CCC(C#N)CC4)nc(OC[C@@]45CCCN4C[C@H](F)C5)nc3c2F)c1C(F)(F)F [Example 103, 1-(7-(6-amino-4-methyl-3-(trifluoromethyl)pyridin-2-yl)-6-chloro-8-fluoro-2-(((2R,7aS)-2-fluorotetrahydro-1H-pyrrolizin-7a(5H)-yl)methoxy)quinazolin-4-yl)piperidine-4-carbonitrile]
The IC50 of the first is 4.2-fold higher: 46 nM for the first, 11 nM for the second.

First: Cc1cc(N)nc(-c2c(Cl)cc3c(N4CCOC[C@@H]4C)nc(OC[C@@]45CCCN4C[C@H](F)C5)nc3c2F)c1C(F)(F)F [Example 105, 6-(6-chloro-8-fluoro-2-(((2R,7aS)-2-fluorotetrahydro-1H-pyrrolizin-7a(5H)-yl)methoxy)-4-((S)-3-methylmorpholino)quinazolin-7-yl)-4-methyl-5-(trifluoromethyl)pyridin-2-amine]
Second: C[C@H]1COCCN1c1nc(OC[C@@]23CCCN2C[C@H](F)C3)nc2c(F)c(-c3cc(N)cc(Cl)c3C(F)(F)F)ncc12 [Example 114, 3-chloro-5-(8-fluoro-2-(((2R,7aS)-2-fluorotetrahydro-1H-pyrrolizin-7a(5H)-yl)methoxy)-4-((S)-3-methylmorpholino)pyrido[4,3-d]pyrimidin-7-yl)-4-(trifluoromethyl)aniline]
The IC50 of the first is 2.7-fold higher: 25 nM for the first, 9.2 nM for the second.

Going from `Cc1cc(N)nc(-c2c(Cl)cc3c(N4CCC5(CC4)CN(C)C(=O)O5)nc(OC[C@@]45CCCN4C[C@H](F)C5)nc3c2F)c1C(F)(F)F` [Example 106, 8-(7-(6-amino-4-methyl-3-(trifluoromethyl)pyridin-2-yl)-6-chloro-8-fluoro-2-(((2R,7aS)-2-fluorotetrahydro-1H-pyrrolizin-7a(5H)-yl)methoxy)quinazolin-4-yl)-3-methyl-1-oxa-3,8-diazaspiro[4.5]decan-2-one] to `COc1cc(N)nc(-c2c(Cl)cc3c(N4CCC(C#N)CC4)nc(OC[C@@]45CCCN4C[C@H](F)C5)nc3c2F)c1C(F)(F)F` [Example 108, 1-(7-(6-amino-4-methoxy-3-(trifluoromethyl)pyridin-2-yl)-6-chloro-8-fluoro-2-(((2R,7aS)-2-fluorotetrahydro-1H-pyrrolizin-7a(5H)-yl)methoxy)quinazolin-4-yl)piperidine-4-carbonitrile], the IC50 rises from 23 nM to over 1000 nM.

First: Cc1nc(N)nc(-c2c(Cl)cc3c(N4CCC(C#N)CC4)nc(OC[C@@]45CCCN4C[C@H](F)C5)nc3c2F)c1C(F)(F)F [Example 107, 1-(7-(2-amino-6-methyl-5-(trifluoromethyl)pyrimidin-4-yl)-6-chloro-8-fluoro-2-(((2R,7aS)-2-fluorotetrahydro-1H-pyrrolizin-7a(5H)-yl)methoxy)quinazolin-4-yl)piperidine-4-carbonitrile]
Second: Nc1cc(Cl)c(C(F)(F)F)c(-c2ncc3c(N4CCOCC4)nc(OC[C@@]45CCCN4C[C@H](F)C5)nc3c2F)c1 [Example 113, 3-chloro-5-(8-fluoro-2-(((2R,7aS)-2-fluorotetrahydro-1H-pyrrolizin-7a(5H)-yl)methoxy)-4-morpholinopyrido[4,3-d]pyrimidin-7-yl)-4-(trifluoromethyl)aniline]
The IC50 of the first is 6.6-fold higher: 73 nM for the first, 11 nM for the second. The second is the more potent here.

First: Nc1cc(Cl)c(C(F)(F)F)c(-c2ncc3c(NC4CC4)nc(OC[C@@]45CCCN4C[C@H](F)C5)nc3c2F)c1 [Example 110, 7-(5-amino-3-chloro-2-(trifluoromethyl)phenyl)-N-cyclopropyl-8-fluoro-2-(((2R,7aS)-2-fluorotetrahydro-1H-pyrrolizin-7a(5H)-yl)methoxy) pyrido[4,3-d]pyrimidin-4-amine]
Second: Nc1cc(Cl)c(C(F)(F)F)c(-c2ncc3c(NC4CCC4)nc(OC[C@@]45CCCN4C[C@H](F)C5)nc3c2F)c1 [Example 111, 7-(5-amino-3-chloro-2-(trifluoromethyl)phenyl)-N-cyclobutyl-8-fluoro-2-(((2R,7aS)-2-fluorotetrahydro-1H-pyrrolizin-7a(5H)-yl)methoxy) pyrido[4,3-d]pyrimidin-4-amine]
The IC50 of the first is 2.4-fold lower: 17 nM for the first, 40 nM for the second. The first is the more potent here.

Going from `Nc1cc(Cl)c(C(F)(F)F)c(-c2ncc3c(NC45CC(C4)C5)nc(OC[C@@]45CCCN4C[C@H](F)C5)nc3c2F)c1` [Example 112, 7-(5-amino-3-chloro-2-(trifluoromethyl)phenyl)-N-(bicyclo [1.1.1]pentan-1-yl)-8-fluoro-2-(((2R,7aS)-2-fluorotetrahydro-1H-pyrrolizin-7a(5H)-yl)methoxy) pyrido[4,3-d]pyrimidin-4-amine] to `C[C@@H]1COCCN1c1nc(OC[C@@]23CCCN2C[C@H](F)C3)nc2c(F)c(-c3cc(N)cc(Cl)c3C(F)(F)F)ncc12` [Example 115, 3-chloro-5-(8-fluoro-2-(((2R,7aS)-2-fluorotetrahydro-1H-pyrrolizin-7a(5H)-yl)methoxy)-4-((R)-3-methylmorpholino)pyrido[4,3-d]pyrimidin-7-yl)-4-(trifluoromethyl)aniline], the IC50 falls from 19 nM to 6.5 nM (2.9-fold).

First: CC[C@H]1COCCN1c1nc(OC[C@@]23CCCN2C[C@H](F)C3)nc2c(F)c(-c3cc(N)cc(Cl)c3C(F)(F)F)ncc12 [Example 116, 3-chloro-5-(4-((S)-3-ethylmorpholino)-8-fluoro-2-(((2R,7aS)-2-fluorotetrahydro-1H-pyrrolizin-7a(5H)-yl)methoxy)pyrido[4,3-d]pyrimidin-7-yl)-4-(trifluoromethyl)aniline]
Second: CC[C@@H]1COCCN1c1nc(OC[C@@]23CCCN2C[C@H](F)C3)nc2c(F)c(-c3cc(N)cc(Cl)c3C(F)(F)F)ncc12 [Example 117, 3-chloro-5-(4-((R)-3-ethylmorpholino)-8-fluoro-2-(((2R,7aS)-2-fluorotetrahydro-1H-pyrrolizin-7a(5H)-yl)methoxy)pyrido[4,3-d]pyrimidin-7-yl)-4-(trifluoromethyl)aniline]
The IC50 of the first is 2.7-fold lower: 4.4 nM for the first, 12 nM for the second.

`C[C@H]1COC[C@H](C)N1c1nc(OC[C@@]23CCCN2C[C@H](F)C3)nc2c(F)c(-c3cc(N)cc(Cl)c3C(F)(F)F)ncc12` [Example 118, 3-chloro-5-(4-((3S,5S)-3,5-dimethylmorpholino)-8-fluoro-2-(((2R,7aS)-2-fluorotetrahydro-1H-pyrrolizin-7a(5H)-yl)methoxy)pyrido[4,3-d]pyrimidin-7-yl)-4-(trifluoromethyl)aniline] and `CC1CN(c2nc(OC[C@@]34CCCN3C[C@H](F)C4)nc3c(F)c(-c4cc(N)cc(Cl)c4C(F)(F)F)ncc23)CCO1` (stereo partly drawn) [Example 119, 3-chloro-5-(8-fluoro-2-(((2R,7aS)-2-fluorotetrahydro-1H-pyrrolizin-7a(5H)-yl)methoxy)-4-(2-methylmorpholino)pyrido[4,3-d]pyrimidin-7-yl)-4-(trifluoromethyl)aniline] are within 1.5-fold of each other in IC50: 23 nM for the first, 24 nM for the second.

In the case of `Nc1cc(Cl)c(C(F)(F)F)c(-c2ncc3c(N4CCO[C@H](CO)C4)nc(OC[C@@]45CCCN4C[C@H](F)C5)nc3c2F)c1` [Example 120, ((2S)-4-(7-(5-amino-3-chloro-2-(trifluoromethyl)phenyl)-8-fluoro-2-((2-fluorotetrahydro-1H-pyrrolizin-7a(5H)-yl)methoxy)pyrido[4,3-d]pyrimidin-4-yl)morpholin-2-yl)methanol], the IC50 is reported as 6.6 nM.
